In patent US12133855B2, “Lipid-like nanocomplexes and uses thereof” (Trustees of Tufts College, priority 2018, dated 2024):

Assays:
[1] = Thiol-triggered calcein release (fluorescence dequenching); type: physicochemical; details: DTT 1 mM, 5 mM and 10 mM, 12 h incubation
Protocol: Lipidoids were fabricated into nanoparticles for all delivery applications. Briefly, lipidoids were mixed with sodium acetate buffer (25 mM, pH 5.2), sonicated for 30 min in an ultrasonic bath, followed by another 30 min of vigorous vortexing. The as-prepared blank LNPs were stored at 4° C. For Cy5-RNA/LNP, mRNA/LNP and protein/LNP complexation, blank lipidoid nanoparticles were mixed with RNA molecules or (−30)GFP-Cre protein in PBS buffer (pH 7.4) following our previously reported procedures and incubated at room temperature for another 30 min before use. Typical procedures for Nile red encapsulation are as follows: 5 μL of Nile red stock solution in acetone was added into an empty vial, which was then placed in a vacuum oven to completely remove the organic solvent. Then, a predetermined amount of blank LNP stock solution (1.0 mg/mL) was added into the vial. The mixture was sonicated for 40 min in an ultrasonic bath and stirred overnight at room temperature. The final concentration of Nile red was adjusted to 6.6×10-7 mol L-1 and 6×10-7 mol L-1 for thiol triggered release study and cell incubation, respectively, by diluting with PBS as necessary. Typical procedures for CPT and DiO/DiI FRET pair encapsulation are as follows: 100 μL of DiO/DiI stock solution in MeOH was charged into an empty vial and placed in a vacuum oven to remove the organic solvent. […]

[2] = Thiol-triggered Nile red release; type: physicochemical
Protocol: Lipidoids were fabricated into nanoparticles for all delivery applications. Briefly, lipidoids were mixed with sodium acetate buffer (25 mM, pH 5.2), sonicated for 30 min in an ultrasonic bath, followed by another 30 min of vigorous vortexing. The as-prepared blank LNPs were stored at 4° C. For Cy5-RNA/LNP, mRNA/LNP and protein/LNP complexation, blank lipidoid nanoparticles were mixed with RNA molecules or (−30)GFP-Cre protein in PBS buffer (pH 7.4) following our previously reported procedures and incubated at room temperature for another 30 min before use. Typical procedures for Nile red encapsulation are as follows: 5 μL of Nile red stock solution in acetone was added into an empty vial, which was then placed in a vacuum oven to completely remove the organic solvent. Then, a predetermined amount of blank LNP stock solution (1.0 mg/mL) was added into the vial. The mixture was sonicated for 40 min in an ultrasonic bath and stirred overnight at room temperature. The final concentration of Nile red was adjusted to 6.6×10-7 mol L-1 and 6×10-7 mol L-1 for thiol triggered release study and cell incubation, respectively, by diluting with PBS as necessary. Typical procedures for CPT and DiO/DiI FRET pair encapsulation are as follows: 100 μL of DiO/DiI stock solution in MeOH was charged into an empty vial and placed in a vacuum oven to remove the organic solvent. Lipidoids (2.0 mg) in 200 μL of methanol were then added into the vial and stirred to produce a homogeneous solution. Then, 600 μL of DI water was added dropwise in 10 min with continuous stirring. The resulting mixture was dialyzed against DI water for 24 h (Thermo Scientific Slide-A-Lyzer Dialysis Cassette, MWCO=3500 Da), and fresh water was replaced every 4 h. Typical procedures for encapsulation of calcein and doxonorubicin hydrochloride are as follows: precalculated amounts of calcein or Dox stock solutions in DI water was diluted into 800 μL with sodium acetate buffer, and used as the selective solvents to trigger the self-assembly process of lipidoids in methanol (5 mg/mL), respectively. The unloaded calcein or Dox was removed by dialysis against DI water (Thermo Scientific Slide-A-Lyzer Dialysis Cassette, MWCO=3500 Da).
The reduction triggered release behavior of encapsulated cargoes was then studied by using nile red loaded 75-OCholB LNPs (NR/75-OCholB), taking advantage of the microenvironmental polarity sensitive photophysical property of nile red. […] In the meantime, 20 μM Cysteine treated NR/75-OCholB released 4.2% of nile red in 2 h and 6.9% in 6 h, which could be ascribed to the previously discussed minimal structural and morphological changes of the LNPs under the stimulus of low concentration of thiols (FIGS. 11A and 11C). […] Furthermore, the binding affinity of OCholB LNPs with negatively charged macromolecular cargo, Cy5-RNA, was examined. […] Additionally, similar to the responsiveness study, it is reasonable that the cargo release profiles could depend on both of the species and concentrations of the thiols-containing regents. Above all, OCholB LNPs loaded with cargoes are relatively stable in the presence of low concentration of thiols and the triggered release behaviors of cargo molecules with different physicochemical properties (hydrophobic/hydrophilic, low/high molecular weight, etc.) could be expected.

Question: With `CCN(CC)CCN(CCC(=O)OCCSSCCNC(=O)OC1CCC2(C)C(=CCC3C2CCC2(C)C(C(C)CCCC(C)C)CCC32)C1)CCC(=O)OCCSSCCNC(=O)OC1CCC2(C)C(=CCC3C2CCC2(C)C(C(C)CCCC(C)C)CCC32)C1` (stereo not drawn) [Lipidoid 75-OCholB] as the molecule, how does the “increase of calcein fluorescence intensity vs untreated and cysteine treated LNPs” value [1] read?
Answer: 4.7-6.4 folds

Question: And the “encapsulated nile red released” value ([2]; 20 μM Cysteine, 2 h)?
Answer: 4.2%

Question: What about the “encapsulated nile red released” value ([2]; 20 μM Cysteine, 6 h) of the same molecule?
Answer: 6.9%

Question: And the “encapsulated nile red released” value ([2]; 1 mM DTT, 2 h)?
Answer: 33.5%

Question: What about the “encapsulated nile red released” value ([2]; 1 mM DTT, 6 h) of the same molecule?
Answer: 44.0%

Question: What about the “encapsulated nile red released” value ([2]; 5 mM DTT, 2 h) of the same molecule?
Answer: 61.7%

Question: What about the “encapsulated nile red released” value ([2]; 5 mM DTT, 6 h) of the same molecule?
Answer: 84.2%

Question: And the “encapsulated nile red released” value ([2]; 10 mM DTT, 2 h)?
Answer: 67.4%

Question: And the “encapsulated nile red released” value ([2]; 10 mM DTT, 6 h)?
Answer: 86.4%
